Experiments:
[1] = tested on: creatinine iminohydrolase; test: Creatinine iminohydrolase activity, Small-scale Enzyme Production (Procedure 2; GDH assay); format: cell-based, ATCC 31546 (tentatively Flavobacterium filamentosum); conditions: for growth of the culture and enzyme production (in words) / creatinine iminohydrolase yield of microbial cells (in words): carbon source; for growth of the culture and enzyme production (in words): Example 2; for Optimum Concentration (carbon source): concentration which produced the highest creatinine iminohydrolase activity, Table II; for optimum concentration: fumaric acid as carbon source and creatinine varied simultaneously, Example 3
Description: (§1) A fresh sample of culture grown for two days on Medium No. 1 slants as described in Procedure 1 above was obtained. From this slant, a loopful of culture was inoculated into 25 ml of a microbial growth medium of the type employed in the present invention contained in a 250 ml Erlenmeyer flask. The microbial growth medium employed consisted of Tryp-Soy Broth, referred to hereinabove. Following inoculation of the culture into the Erlenmeyer flask, the flask was shaken at 200 rpm at 30° C. for eight hours to produce good cellular growth without lysis of the microbial cells. Thereafter, a sample of the contents of the flask was microscopically inspected for culture purity and then aseptically centrifuged at 15,000 xg in a refrigerated centrifuge (available from DuPont Instruments, Newton, CT) for 15 minutes to separate the cells from the Tryp-Soy Broth. The supernatant containing the Tryp-Soy Broth was discarded, and the solid material containing the precipitated microbial cells was then re-suspendedin a volume of sterile distilled water equal to that present before centrifugation. 2 ml of this latter suspension was then used as an inoculum for a 250 ml Erlenmeyer flask containing 25 ml of a production medium to obtain further cell growth and to promote enzyme production by the microorganism. The specific composition of the production medium was varied as described in the following examples. However, in each case, once the microorganism was transferred as a 2-ml inoculum to the flask containing the particular production medium of interest, the flask was shaken at 30° C., 200 rpm for 10 hours. Thereafter, samples of the culture were withdrawn, diluted and dry-cell weight was determined. In addition, a 2.5 ml aliquot of the culture was centrifuged at 15,000 xg in a refrigerated centrifuge to separate the cells from the production medium. The supernatant containing the production medium was discarded. The precipitated cells were disrupted as in Procedure 4 below, and enzyme activity was assayed as described in Procedure 5 below.
(§2) 0.2 ml of an enzyme solution and 0.4 ml of cell suspension were added to 1.4 ml of 0.05 M tris(hydroxymethyl)aminomethane (tris) buffer, pH 8.5, and 10^-3 M (ethylenedinitrilo)tetraacetic acid, dipotassium salt (K2 EDTA). The aforementioned enzyme solution contained per ml of deionized water: 2.5 mg lysozyme, 1 mg bovine pancreatic deoxyribonuclease, and 1 mg bovine pancreatic ribonuclease. The amount of cell suspension was adjusted to give a final optical density of about 1.0, and the final volume was made to 2.0 ml with tris buffer. The suspension was shaken in a water bath at 37° C. for 20 minutes. The cell debris was removed by centrifugation at 27,000 xg in a refrigerated centrifuge, and the supernatant was assayed for enzyme activity as described in Procedure 5 below.
(§3) To determine the creatinine iminohydrolase activity described in the Examples, a L-glutamic dehydrogenase, "GDH", assay method was employed. In the GDH assay method, production of ammonia from creatinine, which represents the activity of a creatinine iminohydrolase enzyme preparation,is measured using NADPH (nicotinamide-adenine dinucleotride phosphate, reduced form) in a GDH-catalyzed reaction as follows:
Creatinine is hydrolyzed to ammonia via the unknown activity of a creatinine iminohydrolase sample, and the resultant ammonia reacts with the reagent α-ketoglutaric acid in the presence of GDH as catalyst to produce glutamic acid. The latter reaction catalyzed by GDH uses the NADPH oxidation reaction (NADPH→NADP), the disappearance of the NADPH absorption peak at 340 nm providing the spectroscopically detectable means for monitoring the assay. That is, the rate of NADPH disappearance measures the rate of glutamic acid production which, in turn, measures the rate of ammonia production.

microorganism ATCC 31546 [2] = test: Dry cell weight, Small-scale Enzyme Production (Procedure 2); format: cell-based, tentatively Flavobacterium filamentosum (ATCC 31546); conditions: Procedure No. 2; glucose 1.0 wt% added, or control 0.0 wt%
Description: as §1, with “The specific composition of the production medium was varied as described in the following examples. However, in each case, once the microorganism was transferred as a 2-ml inoculum to the flask containing the particular production medium of interest, the flask was shaken at 30° C., 200 rpm for 10 hours.” left out, “In addition, a 2.5 ml aliquot of the culture was centrifuged at 15,000 xg in a refrigerated centrifuge to separate the cells from the production medium. The supernatant containing the production medium was discarded. The precipitated cells were disrupted as in Procedure 4 below, and enzyme activity was assayed as described in Procedure 5 below.” left out

microorganism ATCC 31546 [3] = test: Dry cell weight / growth, Large-scale Enzyme Production (Procedure 3); format: cell-based, tentatively Flavobacterium filamentosum (ATCC 31546); conditions: Procedure No. 3; glucose 1.0 wt% added, or control 0.0 wt%
Description: Large-scale enzyme production was carried out using a 150-liter fermentor as follows:
First, following the same steps described in Procedure 2 above, a fresh sample of the microorganism ATCC 31546 culture which had been grown for two days on Medium No. 1 slants was transferred into 25 ml of microbial growth medium contained in a 250-ml Erlenmeyer flask. The microbial growth medium was the same as that described in Procedure 2 above. The first stage of inoculum growth in the microbial growth medium was carried out by shaking the flask at 200 rpm, 25° C. for 12 hours. A sample of the contents of the flask was thereafter microscopically inspected for culture purity. Thereafter, in the second stage of inoculum growth in the microbial growth medium, the contents of two 250-ml Erlenmeyer flasks containing first-stage culture were transferred aseptically to a 14-liter fermentor containing 10 liters of sterilized microbial growth medium having the composition described in Procedure 2 above and also containing 0.01 wt% of a polyglycol anti-foam agent sold under the tradename Polyglycol P-2000 by Dow Chemicals, Midland, MI. […] At this point, a sufficient quantity of cells was available to form an inoculum for the 150-liter fermentor. […] Dissolved oxygen concentration and pH were monitored continuously throughout the 12-hour period. […]

[4] = tested on: creatinine iminohydrolase; test: Creatinine iminohydrolase activity, Large-scale Enzyme Production (Procedure 3; GDH assay); format: cell-based, ATCC 31546 (tentatively Flavobacterium filamentosum); conditions: Procedure No. 3; glucose 1.0 wt% added, or control 0.0 wt%
Description: as §2
as §3, with “follows: […]” for “follows:”

[5] = carbon source at optimum concentration, control 1.0 wt% fumaric acid

SMILES | Creatinine Iminohydrolase Activity % of Control [1, 5] | growth of the culture and enzyme production (in words) [1] | Optimum Concentration (carbon source) [1] [Wt. %] | creatinine iminohydrolase yield of microbial cells (in words) [1] | also measured
O=C(O)CCC(=O)C(=O)O [Ketoglutaric Acid, α-Ketoglutaric acid] | 205 % of Control | good growth of the microorganism and produced more than twice as much enzyme as did the fumaric acid control | 1.0 |  | 
CC(=O)O [Acetic Acid] |  | did not support the growth of the culture or produce a detectable amount of enzyme | 0.1 | yielding only small amounts of creatinine iminohydrolase | 
CC(=O)C(=O)O [Pyruvic Acid] | 105 % of Control | supported good enzyme production although somewhat lower growth of the microorganism was obtained | 0.5 |  | 
N[C@@H](CC(=O)O)C(=O)O [Aspartic Acid] |  | the culture grew well but these sources repressed enzyme synthesis | 1.0 | yielding only small amounts of creatinine iminohydrolase | 
O=C(O)CCC(=O)O [Succinic Acid] | 49 % of Control | acceptable levels of microbial growth and enzyme production | 1.0 |  | 
C[C@H](N)C(=O)O [Alanine] | 35 % of Control |  | 1.0 |  | 
OC[C@H]1OC(O)[C@H](O)[C@@H](O)[C@@H]1O (stereo partly drawn) [Glucose] | 51 % of Control | acceptable levels of microbial growth and enzyme production | 1.0 |  | Dry Cell Weight (microorganism ATCC 31546 [2]): 3.31 g/L; Creatinine Iminohydrolase Activity % of Control ([1]; Procedure No. 2, glucose 1.0 wt% added, or control 0.0 wt%): 135 % of Control; Dry Cell Weight (microorganism ATCC 31546 [3]): 3.92 g/L; Creatinine Iminohydrolase Activity [4]: 720 U/liter; Creatinine Iminohydrolase Activity % of Control [4]: 134 % of Control
O=C(O)CC(O)C(=O)O (stereo not drawn) [Malic Acid] | 100 % of Control | acceptable levels of microbial growth and enzyme production | 1.0 |  | 
O=C(O)CC(O)(CC(=O)O)C(=O)O [Citric Acid] | 71 % of Control | acceptable levels of microbial growth and enzyme production | 1.0 |  | 
OC[C@H]1O[C@@](CO)(O[C@H]2O[C@H](CO)[C@@H](O)[C@H](O)[C@H]2O)[C@@H](O)[C@@H]1O [Sucrose] |  | did not support the growth of the culture or produce a detectable amount of enzyme | 0.5 | yielding only small amounts of creatinine iminohydrolase | 
NCC(=O)O [Glycine] |  | did not support the growth of the culture or produce a detectable amount of enzyme | 0.5 | yielding only small amounts of creatinine iminohydrolase | 
CN1CC(=O)NC1=N [Creatinine] |  |  |  |  | optimum concentration [1]: 0.5%
CC(O)C(=O)O (stereo not drawn) [Lactic Acid] | 8 % of Control | acceptable levels of microbial growth and enzyme production | 0.5 |  | 
N[C@@H](CCC(=O)O)C(=O)O [Glutamic Acid] |  | the culture grew well but these sources repressed enzyme synthesis | 1.0 | yielding only small amounts of creatinine iminohydrolase | 
O=C(O)/C=C/C(=O)O [Fumaric Acid, Fumaric acid] | 100 % of Control | good enzyme production and good growth of the microorganism | 1.0 |  | optimum concentration [1]: 1.0%
OCC(O)CO [Glycerol] |  | did not support the growth of the culture or produce a detectable amount of enzyme | 0.5 | yielding only small amounts of creatinine iminohydrolase | 

Reference: patent publication US4275164A, “Process and nutrient medium for growing microorganism” (priority 1979, dated 1981)
